Source: US10526316B2, “Quinoxaline and pyridopyrazine derivatives as PI3Kβ inhibitors” (Janssen Pharmaceutica NV, priority 2015, dated 2020)

Experiments:
[1] = target: T1, kinase enzymes (Homo sapiens, UniProt P48736); experiment: Enzyme binding assay (KINOMEscan, DiscoveRx), further kinases of Table A; conditions: PIK3Cγ_h
T1 construct: purchased DiscoveRx Corporation, San Diego (contract service, KINOMEscan)
Method: (§1) Enzyme Binding Assays (KINOMEscan®)
(§2) Kinase enzyme binding affinities of compounds disclosed herein were determined using the KINOMEscan technology performed by DiscoveRx Corporation, San Diego, Calif., USA (www.kinomescan.com).

[2] = target: T2, kinase enzymes (Homo sapiens, UniProt P42345); experiment: as above; conditions: MTOR_h
T2 construct: purchased DiscoveRx Corporation, San Diego (contract service, KINOMEscan)
Method: as §1, §2

[3] = target: T3, kinase enzymes (Homo sapiens, UniProt P42336); experiment: as above; conditions: PIK3Cα_h
T3 construct: purchased DiscoveRx Corporation, San Diego (contract service, KINOMEscan)
Method: as §1, §2

[4] = target: T4, PI3Kδ (Homo sapiens, UniProt O00329); experiment: Enzyme binding assay (KINOMEscan, DiscoveRx); conditions: PIK3Cδ_h
T4 construct: purchased DiscoveRx Corporation, San Diego (contract service, KINOMEscan)
T4 sequence (O00329 1-1044): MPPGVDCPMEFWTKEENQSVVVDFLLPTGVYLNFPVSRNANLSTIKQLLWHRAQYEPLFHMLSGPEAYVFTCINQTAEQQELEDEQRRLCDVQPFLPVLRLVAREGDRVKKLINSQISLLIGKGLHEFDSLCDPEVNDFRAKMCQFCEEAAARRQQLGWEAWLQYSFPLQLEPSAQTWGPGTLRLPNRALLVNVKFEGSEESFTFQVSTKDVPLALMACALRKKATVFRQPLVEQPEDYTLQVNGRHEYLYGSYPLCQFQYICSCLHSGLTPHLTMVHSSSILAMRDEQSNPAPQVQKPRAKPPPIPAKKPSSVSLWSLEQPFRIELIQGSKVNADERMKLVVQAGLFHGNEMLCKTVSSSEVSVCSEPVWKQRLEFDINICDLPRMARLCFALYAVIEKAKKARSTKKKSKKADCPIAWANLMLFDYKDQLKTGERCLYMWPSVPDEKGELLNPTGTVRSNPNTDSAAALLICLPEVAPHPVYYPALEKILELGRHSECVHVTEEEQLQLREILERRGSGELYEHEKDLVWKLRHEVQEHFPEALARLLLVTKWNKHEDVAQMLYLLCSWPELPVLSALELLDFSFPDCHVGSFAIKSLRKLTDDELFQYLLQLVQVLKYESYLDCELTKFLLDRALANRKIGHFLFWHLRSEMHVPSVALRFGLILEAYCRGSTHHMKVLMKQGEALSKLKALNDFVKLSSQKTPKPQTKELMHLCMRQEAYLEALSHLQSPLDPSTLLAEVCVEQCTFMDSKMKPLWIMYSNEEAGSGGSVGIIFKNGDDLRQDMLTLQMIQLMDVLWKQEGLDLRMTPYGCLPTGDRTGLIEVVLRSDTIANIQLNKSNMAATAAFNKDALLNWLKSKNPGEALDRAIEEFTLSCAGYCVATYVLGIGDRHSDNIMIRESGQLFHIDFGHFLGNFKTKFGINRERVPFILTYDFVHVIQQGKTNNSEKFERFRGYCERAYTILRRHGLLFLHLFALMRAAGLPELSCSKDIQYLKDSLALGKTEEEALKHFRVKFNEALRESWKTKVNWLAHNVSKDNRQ
Method: as §1, §2

[5] = target: T5, PI3Kβ (Homo sapiens, UniProt P42338); experiment: Enzyme binding assay (KINOMEscan, DiscoveRx); conditions: PIK3Cβ_h, read-out: Kd PIK3Cβ_h
T5 construct: purchased DiscoveRx Corporation, San Diego (contract service, KINOMEscan)
Method: as §1
Kinase enzyme binding affinities of compounds disclosed herein were determined using the KINOMEscan technology performed by DiscoveRx Corporation, San Diego, Calif., USA (www.kinomescan.com). Table A reports the obtained Kd values (nM), with the Kd being the inhibitor binding constant: […]

T1 sequence (P48736 whole entry): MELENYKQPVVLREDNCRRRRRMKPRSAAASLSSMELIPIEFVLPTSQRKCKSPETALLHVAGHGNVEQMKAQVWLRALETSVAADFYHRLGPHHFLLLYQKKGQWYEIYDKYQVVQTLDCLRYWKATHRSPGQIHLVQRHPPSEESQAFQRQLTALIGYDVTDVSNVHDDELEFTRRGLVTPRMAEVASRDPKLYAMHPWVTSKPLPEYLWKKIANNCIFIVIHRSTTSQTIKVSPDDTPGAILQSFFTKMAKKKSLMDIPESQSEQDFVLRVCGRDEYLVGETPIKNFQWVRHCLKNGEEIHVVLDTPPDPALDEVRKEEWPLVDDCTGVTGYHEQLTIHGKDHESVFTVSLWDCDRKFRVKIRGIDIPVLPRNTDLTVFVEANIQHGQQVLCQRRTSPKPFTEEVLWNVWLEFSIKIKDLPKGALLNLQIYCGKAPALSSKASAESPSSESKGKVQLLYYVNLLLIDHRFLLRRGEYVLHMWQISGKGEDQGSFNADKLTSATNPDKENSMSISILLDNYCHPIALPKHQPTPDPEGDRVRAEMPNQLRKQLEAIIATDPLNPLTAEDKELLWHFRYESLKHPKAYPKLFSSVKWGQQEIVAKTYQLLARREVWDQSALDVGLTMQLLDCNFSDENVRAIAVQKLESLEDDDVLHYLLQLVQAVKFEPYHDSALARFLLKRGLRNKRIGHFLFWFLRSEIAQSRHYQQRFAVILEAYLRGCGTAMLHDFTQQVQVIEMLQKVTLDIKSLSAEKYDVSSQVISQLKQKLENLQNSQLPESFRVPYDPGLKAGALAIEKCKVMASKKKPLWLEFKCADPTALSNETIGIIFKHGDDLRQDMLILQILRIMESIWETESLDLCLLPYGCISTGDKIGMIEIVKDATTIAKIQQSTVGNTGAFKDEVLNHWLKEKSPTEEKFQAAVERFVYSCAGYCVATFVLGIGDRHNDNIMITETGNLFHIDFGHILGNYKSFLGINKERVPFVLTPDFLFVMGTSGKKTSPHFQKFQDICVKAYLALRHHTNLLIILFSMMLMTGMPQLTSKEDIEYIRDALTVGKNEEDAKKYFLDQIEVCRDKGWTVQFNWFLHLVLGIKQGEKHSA
T3 sequence (P42336 whole entry): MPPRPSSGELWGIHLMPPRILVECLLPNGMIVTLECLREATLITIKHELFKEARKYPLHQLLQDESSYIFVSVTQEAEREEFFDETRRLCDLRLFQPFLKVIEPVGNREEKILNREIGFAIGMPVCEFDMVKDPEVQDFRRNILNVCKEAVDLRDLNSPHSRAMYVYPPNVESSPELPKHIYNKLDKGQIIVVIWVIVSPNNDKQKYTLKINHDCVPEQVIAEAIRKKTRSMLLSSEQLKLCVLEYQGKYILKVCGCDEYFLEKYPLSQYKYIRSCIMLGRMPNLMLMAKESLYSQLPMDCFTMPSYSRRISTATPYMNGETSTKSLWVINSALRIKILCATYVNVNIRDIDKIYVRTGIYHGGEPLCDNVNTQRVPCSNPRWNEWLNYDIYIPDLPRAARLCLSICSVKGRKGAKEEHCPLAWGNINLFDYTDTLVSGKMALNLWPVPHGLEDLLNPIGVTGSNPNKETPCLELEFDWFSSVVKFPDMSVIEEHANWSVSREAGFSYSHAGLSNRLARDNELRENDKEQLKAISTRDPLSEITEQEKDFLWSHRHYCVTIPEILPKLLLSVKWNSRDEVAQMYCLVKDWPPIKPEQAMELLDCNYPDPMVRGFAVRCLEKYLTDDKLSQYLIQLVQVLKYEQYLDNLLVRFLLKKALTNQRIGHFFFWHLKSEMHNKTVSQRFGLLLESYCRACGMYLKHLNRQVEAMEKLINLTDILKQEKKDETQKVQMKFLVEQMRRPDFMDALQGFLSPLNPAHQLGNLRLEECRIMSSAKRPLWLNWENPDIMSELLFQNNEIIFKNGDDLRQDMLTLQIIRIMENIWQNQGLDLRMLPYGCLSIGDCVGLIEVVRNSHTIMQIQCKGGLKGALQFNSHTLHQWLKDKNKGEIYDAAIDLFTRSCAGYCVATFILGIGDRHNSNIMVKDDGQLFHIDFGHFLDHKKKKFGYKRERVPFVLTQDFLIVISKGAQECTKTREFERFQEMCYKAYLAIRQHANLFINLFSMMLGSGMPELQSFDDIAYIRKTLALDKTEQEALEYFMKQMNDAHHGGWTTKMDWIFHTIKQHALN
T5 sequence (P42338 whole entry): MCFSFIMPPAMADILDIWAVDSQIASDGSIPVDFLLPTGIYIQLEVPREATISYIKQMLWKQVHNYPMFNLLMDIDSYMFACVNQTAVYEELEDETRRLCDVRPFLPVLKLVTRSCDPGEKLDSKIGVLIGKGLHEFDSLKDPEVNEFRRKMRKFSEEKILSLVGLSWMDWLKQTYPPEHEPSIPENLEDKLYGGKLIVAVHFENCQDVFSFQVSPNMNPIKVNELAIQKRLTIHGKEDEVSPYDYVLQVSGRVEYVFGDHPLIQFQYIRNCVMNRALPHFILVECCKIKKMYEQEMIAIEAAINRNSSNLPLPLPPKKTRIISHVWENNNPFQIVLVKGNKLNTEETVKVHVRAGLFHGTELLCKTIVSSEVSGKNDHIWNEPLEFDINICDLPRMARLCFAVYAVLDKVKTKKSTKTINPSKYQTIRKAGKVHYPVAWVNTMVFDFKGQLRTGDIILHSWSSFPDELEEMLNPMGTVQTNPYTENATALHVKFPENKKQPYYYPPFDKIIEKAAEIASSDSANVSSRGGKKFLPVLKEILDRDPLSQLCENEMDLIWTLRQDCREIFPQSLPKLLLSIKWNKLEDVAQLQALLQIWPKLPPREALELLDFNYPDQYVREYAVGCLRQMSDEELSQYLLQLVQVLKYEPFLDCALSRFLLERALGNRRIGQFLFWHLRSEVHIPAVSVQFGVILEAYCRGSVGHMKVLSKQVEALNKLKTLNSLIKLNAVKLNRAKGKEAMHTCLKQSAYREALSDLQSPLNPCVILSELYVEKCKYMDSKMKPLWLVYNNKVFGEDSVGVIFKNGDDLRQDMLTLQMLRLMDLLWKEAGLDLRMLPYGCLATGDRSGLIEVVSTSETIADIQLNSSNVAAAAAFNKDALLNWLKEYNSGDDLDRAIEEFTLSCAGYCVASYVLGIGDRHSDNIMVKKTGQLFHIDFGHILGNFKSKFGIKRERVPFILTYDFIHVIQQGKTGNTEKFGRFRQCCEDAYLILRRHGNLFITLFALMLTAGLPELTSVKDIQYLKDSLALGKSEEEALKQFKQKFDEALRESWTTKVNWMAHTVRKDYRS

Q: Which results are given for O=C(NCCO)c1cc(N2CCC2c2ccc(F)cc2)c2nc(N3CCOCC3)cnc2c1 (single isomer, unassigned) [Compound 391a]?
A: Kd [1]: > 30.2 µM; Kd [2]: 17 µM; Kd [3]: > 30.2 µM; Kd [4]: > 30.2 µM; Kd [5]: 10.7 µM

Q: What does the source list for CNCCN(C)C(=O)c1cc(C(C)Oc2cc(F)c(F)c(F)c2)c2nc(N3CCOCC3)cnc2c1 (single isomer, unassigned) [Compound 379b]?
A: Kd [1]: > 30.2 µM; Kd [2]: > 30.2 µM; Kd [3]: > 30.2 µM; Kd [4]: > 30.2 µM; Kd [5]: 1.26 µM

Q: With O=C(NCCO)c1cc(N2CCC2c2ccc(F)cc2)c2nc(N3CCOCC3)cnc2c1 (single isomer, unassigned) [Compound 391b] as the compound, how does the Kd [1] read?
A: > 30.2 µM

Q: What about the Kd [2] of the same compound?
A: > 30.2 µM

Q: And the Kd [3]?
A: > 30.2 µM

Q: And the Kd [4]?
A: > 30.2 µM

Q: What about the Kd [5] of the same compound?
A: 19.5 µM

Q: With CN[C@H]1CCN(C(=O)c2cc(C(C)Nc3ccc(F)c(F)c3)c3nc(N4CCOCC4)cnc3c2)C1 (single isomer, unassigned) [Compound 365b] as the compound, how does the Kd [1] read?
A: 22.9 µM

Q: What about the Kd [2] of the same compound?
A: > 30.2 µM

Q: What about the Kd [3] of the same compound?
A: 15.5 µM

Q: What about the Kd [4] of the same compound?
A: 4.17 µM

Q: What about the Kd [5] of the same compound?
A: 0.251 µM

Q: Which Kd [1] does the source give for CC(Nc1ccc(F)c(F)c1)c1cc(C(=O)N2CC[C@@H](O)C2)cc2ncc(N3CCOCC3)nc12 (single isomer, unassigned) [Compound 300b] here?
A: > 30.2 µM

Q: What about the Kd [2] of the same compound?
A: > 30.2 µM

Q: What about the Kd [3] of the same compound?
A: 24 µM

Q: What about the Kd [4] of the same compound?
A: 23.4 µM

Q: What about the Kd [5] of the same compound?
A: 0.537 µM

Q: Which Kd [2] does the source give for CNCCNC(=O)c1cc(C(C)Oc2ccc(Cl)c(F)c2)c2nc(N3CCOCC3)cnc2c1 (stereo not shown) [Compound 380a] here?
A: 19.1 µM

Q: And the Kd [3]?
A: 9.12 µM

Q: And the Kd [4]?
A: 7.24 µM

Q: What about the Kd [5] of the same compound?
A: 1.05 µM

Q: What does the source list for CN(Cc1cc(F)cc(F)c1)c1cc(C(=O)O)cc2ncc(N3CCOCC3)nc12 [Compound 291]?
A: Kd [1]: 0.513 µM; Kd [2]: 10.2 µM; Kd [3]: 0.55 µM; Kd [4]: 2.82 µM; Kd [5]: 0.407 µM

Q: How did the Kd [1] turn out when CC(Oc1ccc(F)c(F)c1)c1cc(C(=O)N2CC[C@H](N(C)C)C2)cc2ncc(N3CCOCC3)nc12 (single isomer, unassigned) [Compound 363b] was run?
A: > 30.2 µM

Q: And the Kd [2]?
A: 27.5 µM

Q: What about the Kd [3] of the same compound?
A: 31.6 µM

Q: What about the Kd [4] of the same compound?
A: 17 µM

Q: What about the Kd [5] of the same compound?
A: 1.29 µM

Q: With CC(C)NCCN(C)C(=O)c1cc(N(C)Cc2cc(F)cc(F)c2)c2nc(N3CCOCC3)cnc2c1 [Compound 390] as the compound, how does the Kd [1] read?
A: 22.4 µM

Q: What about the Kd [2] of the same compound?
A: > 30.2 µM

Q: And the Kd [3]?
A: 16.6 µM

Q: And the Kd [4]?
A: 3.24 µM

Q: And the Kd [5]?
A: 0.078 µM

Q: What does the source list for O=C(c1cc(NCc2cc(F)cc(F)c2)c2nc(N3CCOCC3)cnc2c1)N1CCCNCC1 [Compound 351]?
A: Kd [1]: 2.14 µM; Kd [2]: > 30.2 µM; Kd [3]: 2.51 µM; Kd [4]: 1.7 µM; Kd [5]: 0.021 µM

Q: What does the source list for CC(C)NCCNC(=O)c1cc(NCc2cc(F)cc(F)c2)c2nc(N3CCOCC3)cnc2c1 [Compound 342]?
A: Kd [1]: 26.9 µM; Kd [2]: 16.6 µM; Kd [3]: 3.8 µM; Kd [4]: 1 µM; Kd [5]: 0.009 µM

Q: What does the source list for CC(Nc1cc(F)c(F)c(F)c1)c1cc(C(=O)N2CCCN(C(C)C)CC2)cc2ncc(N3CCOCC3)nc12 (single isomer, unassigned) [Compound 388a]?
A: Kd [1]: > 30.2 µM; Kd [2]: > 30.2 µM; Kd [3]: > 30.2 µM; Kd [4]: > 30.2 µM; Kd [5]: 0.933 µM

Q: Which results are given for CN(Cc1cc(F)cc(F)c1)c1cc(C(=O)N2CCNC(C(F)(F)F)C2)cc2ncc(N3CCOCC3)nc12 (single isomer, unassigned) [Compound 319a]?
A: Kd [1]: > 30.2 µM; Kd [2]: > 30.2 µM; Kd [3]: 9.12 µM; Kd [4]: 2.82 µM; Kd [5]: 0.2 µM
